The nature of data set [1]: hygroscopicity, Dynamic Vapor Sorption (DVS). Conditions: for Hygroscopicity: hydrochloric acid salt; for water absorbed eventually (up to): 90% RH; for RH at which moisture pick-up starts: relative humidity. Type of data set: physicochemical. As to the method:
Salt forms of a compound of formula 1 were investigated with X-ray powder diffraction, DSC, TGA and microscopy. FIG. 1 illustrates X-ray patterns observed for various salt forms. FIGS. 2 and 3 present results of thermal studies performed on such salt forms. FIGS. 4 and 5 present DVS data of sulfuric and phosphoric salts. […] FIGS. 6-12 show characterization data for hydrochloride salt forms.
Dynamic Vapor Sorption (DVS) was done at 25-26° C.

The nature of data set [2]: solubility of hydrochloride crystal forms. Type of data set: physicochemical.
The target of data set [3] is T1, α7 nicotinic acetylcholine receptor (Rattus norvegicus, UniProt Q05941).
T1 construct: expressed in transfected cells
Description: functional FLIPR assay, α7 nAChR stably expressed in GH4C1 cells. Type of data set: cell-based. Conditions: GH4C1 cells stably transfected with rat α7 nAChR; agonist concentration range 0.001 to 30 microM.
Description: Rat GH4C1 cells were then transfected with the rat receptor, cloned and analyzed for functional alpha7 nicotinic receptor expression employing a FLIPR assay to measure changes in intracellular calcium concentrations.
The FLIPR system allows the measurements of real time Ca^2+-concentration changes in living cells using a Ca^2+ sensitive fluorescence dye (such as Fluo4). This instrument enables the screening for agonists and antagonists for alpha 7 nAChR channels stably expressed in GH4C1 cells.
GH4C1 cells stably transfected with rat-α7-nAChR (see above) were used. These cells are poorly adherent and therefore pretreatment of flasks and plates with poly-D-lysine was carried out. Cells are grown in 150 cm^2 T-flasks, filled with 30 ml of medium at 37° C. and 5% CO2.
EC50 and IC50 values were calculated using the IDBS XLfit4.1 software package employing a sigmoidal concentration-response (variable slope) equation:

T1 sequence (Q05941 23-502): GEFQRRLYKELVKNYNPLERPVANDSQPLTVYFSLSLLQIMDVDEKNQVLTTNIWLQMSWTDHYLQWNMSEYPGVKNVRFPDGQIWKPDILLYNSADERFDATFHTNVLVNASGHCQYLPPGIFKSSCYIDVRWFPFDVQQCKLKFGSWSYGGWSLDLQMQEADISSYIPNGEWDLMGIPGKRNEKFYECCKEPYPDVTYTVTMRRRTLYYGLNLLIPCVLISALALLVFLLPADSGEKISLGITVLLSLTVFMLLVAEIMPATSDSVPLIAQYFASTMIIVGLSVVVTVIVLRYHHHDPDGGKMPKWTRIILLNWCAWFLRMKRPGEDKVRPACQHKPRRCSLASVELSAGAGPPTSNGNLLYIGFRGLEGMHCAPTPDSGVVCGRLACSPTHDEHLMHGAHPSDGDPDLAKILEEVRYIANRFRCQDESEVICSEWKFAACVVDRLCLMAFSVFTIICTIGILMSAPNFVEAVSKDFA

Turning to `COc1ccc(-c2cc(NC(=O)CCCCN3CCCN(C(C)=O)CC3)n[nH]2)cc1.Cl` [Form V], in data set [1] (listed as Crystal Form V), the “water held at 50% RH” value is on record as “(7% at RH” and the “Hygroscopicity (in words)” value is recorded as “Hygroscopic”.

A word on the melting point: it is the temperature of the solid-liquid transition. Compound `COc1ccc(-c2cc(NC(=O)CCCCN3CCCN(C(C)=O)CC3)n[nH]2)cc1.Cl` [Hydrochloric acid, 5-(4-acetyl-1,4-diazepan-1-yl)-N-(5-(4-methoxyphenyl)-1H-pyrazol-3-yl)pentanamide hydrogen chloride] returned a melting point of 132 to 133 °C. In data set [1] (crystalline solid with melting onset 125° C. (first of two such lines)), the Hygroscopicity entry is “Yes”. For the same compound, in data set [1] (crystalline solid with melting onset 165° C.), the Hygroscopicity result is listed as “Somewhat”. Besides, in data set [1] (crystalline solid with melting onset 185° C.), the Hygroscopicity result is “No”. Also, the Hygroscopicity entry in data set [1] (solid with three peaks: about 100, about 180 and about 200° C.) is reported as “Yes”. In data set [1] (hydrochloride salt of Example 2D, precipitated from DCM with HCl in Et2O), the “hygroscopicity of the sample” value is on record as “extreme hygroscopicity”. Moreover, the “Hygroscopicity (in words)” value in data set [1] (listed as hydrochloride) was “non-hygroscopic”.

For Sulfuric acid, the “water held at 50% RH” value is listed as “maintains 0.4%” in data set [1], “about 0.4%” in data set [1] (listed as sulfate salt form) and “about 0.4%” in data set [1] (listed as sulfuric salt form). For the same compound, in data set [1] (below 70% RH), the “gain below 70% RH” value is reported as 0.5%. Moreover, the “Hygroscopicity (in words)” value is given as “non-hygroscopic” in data set [1] (listed as sulfate salt), “low degree of hygroscopicity” in data set [1] (listed as sulfate salt form) and “low degree of hygroscopicity” in data set [1] (listed as sulfuric salt form).

`COc1ccc(-c2cc(NC(=O)CCCCN3CCCN(C(C)=O)CC3)n[nH]2)cc1.Cl` [Form I, 5-(4-acetyl-1,4-diazepan-1-yl)-N-(5-(4-methoxyphenyl)-1H-pyrazol-3-yl)pentanamide hydrochloric salt Form I]: in data set [1] (70-100% RH, lost without significant hysteresis on decreasing RH), the “moisture gained at 70-100% RH” value is listed as “at least 2%”. Moreover, in data set [1], the “water absorbed eventually (up to)” value is recorded as “up to 2%” and the “RH at which moisture pick-up starts” value is listed as “about 50%”. For the same compound, in data set [1] (RH <= 70%), the “moisture gained when equilibrated at RH less than or equal to 70%” value was “about 0.5%”. Moreover, the “solubility in water (in words)” value in data set [2] is listed as “considerably soluble”.

What is called solubility is how much of the substance goes into solution per volume. As to `COc1ccc(-c2cc(NC(=O)CCCCN3CCCN(C(C)=O)CC3)n[nH]2)cc1.Cl` [Form III], in data set [1] (listed as Crystal Form III), the “water held at 50% RH” value is given as “(10% water” and the “Hygroscopicity (in words)” value is reported as “Hygroscopic”. Besides, the solubility in data set [2] (MC/T, aqueous with cosolvent or surfactant or cyclodextrin) is above 100 mg/mL.

What is called EC50 is the concentration that produces a half-maximal response. For the compound `C[N+]1(C)CCN(c2ccccc2)CC1` [DMPP], a half-maximal response in data set [3] (EC50) required 980 ± 470 nM.

`COc1ccc(-c2cc(NC(=O)CCCCN3CCCN(C(C)=O)CC3)n[nH]2)cc1.Cl` [Form II, 5-(4-acetyl-1,4-diazepan-1-yl)-N-(5-(4-methoxyphenyl)-1H-pyrazol-3-yl)pentanamide hydrochloric salt Form II]: in data set [1], the “water absorbed eventually (up to)” value was “up to 7%” and the “RH at which moisture pick-up starts” value is recorded as “about 20%”. Besides, the “water held at low RH” value in data set [1] (low RH (0%)) is on record as 2%. For the same compound, in data set [2], the “solubility in water (in words)” value is given as “considerably soluble”.

These data come from US20090181953A1, “COMPOUND FORMS AND USES THEREOF” (WYETH, priority 2008, published 2009).
